The test system of data set [1] is mitochondria of P. falciparum parasites. In words: Mitochondrial membrane potential measurement. Conditions: 1 µM. In kind it is cell-based, Plasmodium falciparum. The method, then:
Changes in mitochondrial membrane potential, another common hallmark of programed cell death, were analyzed in the samples that had promising activities toward P. falciparum cultures. The results of adding 1 µM of each compound can be seen in Fig. 5. […] This could probably be explained by the presence of the unsubstituted picolinamide fragment, therefore more polar and less soluble in the membrane, making it harder or slower to permeate into the erythrocyte and then into the parasite, with respect to the other three.  Figure 5 Changes to mitochondrial membrane potential caused by antiplasmodial compounds. Fluorometry was used to measure the effects on the mitochondria of P. falciparum parasites caused by treatment with compounds that show activity against their growth in culture. A membrane disruptor (CCCP) was added as a positive control and untreated cultures were used as the negative one. All compounds were tested at 1 µM in triplicates, n = 3. (a) BZ 1, (b) BZ 5, (c) BZ 16, (d) BZ 26 and (e) BZ 33. *p < 0.05, **p < 0.01, ***p < 0.005. The membrane potential was measured in a flow cytometer after staining P. falciparum cultures with the DiOC6(3) dye at 10 nM (Thermo Fisher, Waltham, MA, USA). Samples were incubated for 45 min at 37 °C in the dark. Following incubation, cells were washed and resuspended using 200 µL of phosphate-buffered saline (PBS) and analyzed immediately after. The mitochondrial membrane disrupter, CCCP (50 µM), incubated for 1 h, was used as a positive control. The fluorescence intensity of stained cells was calculated using FCS Express 4 (De Novo Software, Glendale, CA, USA). As negative control, uninfected red blood cells were used and their signal was subtracted from that of the infected red blood cells.

The subject of the next data set is P. falciparum HB3 strain. In words: Antiplasmodial activity against P. falciparum HB3 strain in culture. In kind it is cell-based, Plasmodium falciparum. Conditions: for IC50 / inhibition at 10 µM: Plasmodium falciparum; for IC50: HB3 strain (chloroquine-sensitive), read-out: IC50; for inhibition at 10 µM: HB3 strain, read-out: GI (growth inhibition percentage); for SI (selectivity index): Vero CC50 versus HB3 IC50. The method, then: (§1) In vitro activity of BZ. All BZ derivatives were tested at 10 μM against the HB3 strain of Pf, and for those compounds with a percentage of growth inhibition (% GI) higher than 50%, the IC50 values were determined. In addition, their cytotoxicity on epithelial Vero cell cultures was evaluated to calculate their selectivity indexes (SI), Table 1. An index of 10 or above is expected for a lead compound.
(§2) The chloroquine-sensitive […] and chloroquine-resistance 7G8 strain […] of P. falciparum were used throughout. Infected erythrocytes were kept in culture using the protocol established by Haynes et al.[44], basically utilizing human O^+ erythrocytes kept in an RPMI medium supplemented with glutamine and 10% human serum incubated in an atmosphere of 90% N2, 5% O2 and 5% CO2.

The subject of data set [2] is plasma membrane of parasite culture / erythrocytes. In words: Propidium iodide incorporation assay (membrane integrity). In kind it is cell-based, Plasmodium falciparum. Conditions: 3 h incubation, fluorometry. The method, then: The integrity of the plasma membrane under the action of certain antiplasmodial compounds was assessed through the use of two methodologies. First, the absorption of propidium iodide, to which intact membranes are impermeable, was measured. Second, the presence of heme in the culture media, which indicates a leakage of the contents of the erythrocyte or its complete lysis (hemolysis), was analyzed.
Figure 3 Membrane integrity tests. BZ 1, 5, 16, 26 and 33 were tested in triplicates in two independent experiments. (a) Incorporation of propidium iodide (PI) was analyzed through fluorometry after 3 h incubation with the compounds. (b) Hemolysis was measured by light absorbance 24 h after exposure to the compounds. One-way ANOVA with Turkey´s comparison was used for analysis of significance. ****p < 0.001.
Manufacturer’s instructions (BD PharmingenTM) were followed. Briefly, 200 µL of parasite culture at 2% parasitemia or uninfected erythrocytes, at 2% hematocrit, were incubated with each compound for 3 h at 37 °C. Untreated samples were cultured in the same plate. After incubation, 2 µL of Propidium Iodide was added and incubated for 15 min at RT while protected from light. Fluorescence was read in a fluorometer at excitation and emission wavelengths of 485/20 and 645/40 nm, respectively.

Data set [3] can be described thus: Cytotoxicity on epithelial Vero cell cultures. The class given is cell-based. The note with it: African green monkey, epithelial Vero cells. Here is the method: as §1
Data set [4] relates to P. falciparum-infected cultures. In words: Intracellular reactive oxygen species (ROS) production in P. falciparum. The class given is cell-based, Plasmodium falciparum. The note with it: 1 µM; 0.5, 6 and 9 h. The method, then:
Also, the intracellular production of oxygen reactive species (ROS) was monitored for the same antiplasmodial compounds. The level of ROS production was compared between the samples and that of the untreated parasites. […] This would point to the conformation of such molecules targeting a specific molecule or process of the parasite.  Figure 4 Effect of selected benzimidazole derivatives on ROS production. Five potent compounds were incubated with P. falciparum-infected cultures and the production of reactive oxygen species was measured through fluorometry at 0.5, 6 and 9 h after their addition at 1 µM. As positive control, a sample containing hydrogen peroxide at 200 μM was added. Samples were measured in triplicates. One-way ANOVA with Turkey´s comparison was used to measure significance with respect to the untreated control at each different time point. n = 2. (a) BZ 1, (b) BZ 5, (c) BZ 16, (d) BZ 26 and (e) BZ 33. *p < 0.05, **p < 0.01, ***p < 0.005. Intracellular ROS formation was measured in a fluorimeter using the CM-H2DCFDA reactive dye from Molecular Probes® (Eugene OR, USA). Hydrogen peroxide was used as a positive control at a final concentration of 200 µM. The level of ROS present was inferred through the amount of oxidized DCF[45].

Data set [5] deals with hemozoin biocrystallization in P. falciparum. In words: Hemozoin biocrystallization / beta-hemozoin formation. The class given is cell-based, Plasmodium falciparum. Conditions: Pf cultures, 36 h. From the text: (§3) The mechanism used by Pf to prevent intoxication with free heme once hemoglobin is degraded is to form hemozoin crystals that capture heme. Mefloquine and other common antimalarials interfere with this pathway, resulting in the death of the parasite.

Data set [6] has as its system 7G8 P. falciparum parasites. In words: Antiplasmodial activity against chloroquine-resistant 7G8 P. falciparum. In kind it is cell-based, Plasmodium falciparum. Conditions: for IC50: Plasmodium falciparum, 7G8 strain (chloroquine-resistant), read-out: 7G8 Pf IC50; for SI (selectivity index): Vero CC50 versus 7G8 IC50.
From the text: as §3, §2

One may read the IC50 as the concentration needed to halve the response being measured. One may read the inhibition as the percentage by which the read-out fell short of the control. The term CC50 denotes the concentration giving 50% cytotoxicity. The low end stands for harm at low concentration, the high end for better tolerance by the cells. One may read the melting point as the temperature, or range, at which the solid turns liquid.

Consider `COc1ccc2[nH]c(NC(=O)c3ccc(C)cn3)nc2c1` [BZ 26, N-(5-Methoxy-1H-benzimidazol-2-yl)-5-methylpicolinamide], for which, in data set [1], the “Change in mitochondrial membrane potential versus untreated control” value (shortened to “Change”) is listed as “shows an effect from t = 6 h onward”. In the data set with P. falciparum HB3 strain, the IC50 is 3300 nM, the inhibition at 10 µM was 93.5% and the “SI (selectivity index)” value came to 3.4. Moreover, the “Membrane integrity: incorporation of propidium iodide” value (from here on “Membrane integrity: incorporation”) in data set [2] is reported as “some permeation in the membrane, although not significant”. The same molecule gave a cytotoxic concentration (CC50) in data set [3] of 11100 nM. The “Intracellular ROS production versus untreated parasites” value in data set [4] is given as “no significant difference at any point”.
Turning to `Cc1ccc(C(=O)Nc2nc3cc(Cl)ccc3[nH]2)nc1` [BZ 16, N-(5-Chloro-1H-benzimidazol-2-yl)-5-methylpicolinamide], the “Interference with hemozoin biocrystallization” value in data set [5] was “small level of disruption”. Moreover, in the data set with P. falciparum HB3 strain, the IC50 was 2400 nM, the inhibition at 10 µM was determined as 85.6% and the “SI (selectivity index)” value came out at 3.0. The “Membrane integrity: incorporation” value in data set [2] is recorded as “some permeation in the membrane, although not significant”. In data set [3], the CC50 amounted to 7200 nM. The “Intracellular ROS production versus untreated parasites” value in data set [4] is recorded as “no significant difference at any point”. Besides, in data set [6], the IC50 came out at 2600 nM and the “SI (selectivity index)” value is 2.7.
Take `Cc1ccc2[nH]c(NC(=O)c3ccccn3)nc2c1` [BZ 1, N-(5-methyl-1H-benzimidazol-2-yl)picolinamide]: the “Change” value in data set [1] is listed as “do not show a difference with the untreated control up to t = 6 h”. Besides, in the data set on P. falciparum HB3 strain, the IC50 was found to be 980 nM and the inhibition at 10 µM amounted to 93.5%. The “Membrane integrity: incorporation” value in data set [2] is on record as “best in keeping the membrane well preserved”. In data set [3], it took 14800 nM to reach half-maximal cytotoxicity (CC50). Also, the “Intracellular ROS production versus untreated parasites” value in data set [4] was “early significant decrease in the natural level of ROS”. For the same molecule, in data set [6], the IC50 came out at 950 nM and the “SI (selectivity index)” value is 15.6.
For the molecule `Cc1cc2nc(NC(=O)c3ccccn3)[nH]c2cc1C` [BZ 33, N-(5,6-Dimethyl-1H-benzimidazol-2-yl)picolinamide], the “Change” value in data set [1] is given as “do not show a difference with the untreated control up to t = 6 h”. Also, in the data set with P. falciparum HB3 strain, the IC50 was found to be 850 nM and the inhibition at 10 µM amounted to 100%. For the same molecule, the “Membrane integrity: incorporation” value in data set [2] is “best in keeping the membrane well preserved”. Also, the CC50 in data set [3] came to 13200 nM. In data set [4], the “Intracellular ROS production versus untreated parasites” value is recorded as “early significant decrease in the natural level of ROS”.
`Cc1ccc(C(=O)Nc2nc3cc(C)ccc3[nH]2)nc1` [BZ 5, 5-Methyl-N-(5-methyl-1H-benzimidazol-2-yl)picolinamide] had a melting point of 256 °C. In the data set with P. falciparum HB3 strain, the IC50 is 1500 nM and the inhibition at 10 µM worked out at 100%. Also, in data set [2], the “Membrane integrity: incorporation” value is listed as “some permeation in the membrane, although not significant”. In data set [3], this molecule yielded a CC50 of 4500 nM. Moreover, the “Intracellular ROS production versus untreated parasites” value in data set [4] is given as “no significant difference at any point”.

(Values after publication PMC9822940, “Antiplasmodial activity, structure–activity relationship and studies on the action of novel benzimidazole derivatives” (Scientific Reports, 2023).)
